Reference: article PMC3160846 (PLoS ONE, 2011)

Tests used:
[1] = tested on: HCT116 cancer cells; test: Western blot of phosphor-Aurora kinases and phosphor-Histone H3 in HCT116 cells; format: cell-based
Protocol: Cells were lysed with ice-cold lysis buffer (10 mM Tris, 1 mM EDTA, 1 mM DTT, 60 mM KCl, 0.5% NP-40 and protease inhibitors). […] The resolved proteins were electrophoretically transferred to PVDF membranes (Amersham Life Science, Amersham, U.K.) for Western blot analysis. The membranes were blocked with 5% non-fat milk at room temperature for two hours, washed twice with TBST (1% Tween) and then incubated with either anti-phosphorylated Aurora-A/-B/-C kinase antibody (#2914S, Cell Signaling Technology, Danvers, MA), anti-Aurora-A and -B kinase antibody (#ab1287 and #ab2254, Abcam, Cambridge, MA), anti-phosphorylated Histone H3 antibody (#9701, Cell Signaling Technology, Danvers, MA), anti-Histone H3 antibody (#9715, Cell Signaling Technology, Danvers, MA), anti-Cyclin B1 antibody or anti-Actin antibody (#sc-245 and #sc-130065, Santa Cruz Biotechnology, Santa Cruz, CA) overnight at 4°C. Membranes were washed twice with TBST then subsequently incubated with a horseradish peroxidase-conjugated secondary antibody (Santa Cruz Biotechnology, Santa Cruz, CA) for 1 hour at room temperature. Immunoreactivity was detected by Enhanced Chemiluminescence (Amersham International, Buckingham, U.K.) and autoradiography. Experiments were repeated independently at least two times.

[2] = tested on: KB-VIN10 cells; test: Clonogenic assay, KB-VIN10; format: cell-based, Human; details: for IC50: Homo sapiens, KB-VIN10, vincristine resistant, MDR1 ↑, read-out: IC50, anti-proliferative activity
Protocol: (§1) Human lung adenocarcinoma A549 cells and NTUB1 bladder cancer cells were maintained in RPMI supplied with 10% fetal bovine serum. […] KB-derived MRP1-expressing cell line, KB-7D, was maintained in growth medium supplemented with 7 µM VP-16.
(§2) Two hundred cells in logarithmic growth phase were seeded in a 6-well plate. The cells were exposed to various concentrations of the test drugs for a three-generation period. At the end of the incubation period, cells were fixed and stained with 50% ethanol containing 0.5% methylene blue for 30 min. The plates were washed five times with water and allowed to air-dry. Colonies were countered manually. […] Each value represents the average of at least three independent experiments run in triplicates.

[3] = tested on: MDR1-expressing KB-VIN10 xenograft; test: KB-VIN10 xenograft in nude mice; format: in vivo; details: 5 days/week for 3 weeks; for decrease in tumor volume: Day 42, BPR1K653 15 mg/kg or VX680 30 mg/kg i.p.
Protocol: Male nude mice (5–6-weeks-old) were purchased from the National Laboratory Animal Centre (Taiwan R.O.C.). The animals were s.c. implanted with 5×10^5 KB cells or 1×10^6 KB-VIN10 cells mixed with equal volume of Matrigel (Becton Dickinson) in 0.1 mL at one flank per mouse via a 22-gauge needle. Tumor growth was examined twice a week after implantation, and the volume of tumor mass was measured with an electronic caliper and calculated as 1/2×length×width^2 in mm^3.
BPR1K653 was dissolved completely in a vehicle mixture of DMSO/cremophor/saline (1∶2∶7). Selected dose of BPR1K653 was decided base on the following conditions: 1/2 of the dosage that caused noticeable body weight loss (>10%) in the treated mice during toxicity study. […] The control group (5 mice) was treated with vehicle mixture only. Tumor size and animal body weight were measured every three days after drug treatment. Toxicity was evaluated based on the body weight reduction. At the end of the experiments (tumor size of the control >2000 mm^3), animals were euthanized with carbon dioxide.

[4] = tested on: KB-VIN10 cells; test: Endo-replication (polyploidy), microscopy and flow cytometry, KB-VIN10; format: cell-based, Human; details: for formation of polyploidy (populations >4N): KB-VIN10, 48 h, same concentrations as KB
Protocol: Cell cycle progression was monitored using flow cytometry. After drug treatment, cells were trypsinized, washed with PBS and fixed in 80% ethanol at −20°C for 1 h. The fixed cells were stained with propidium iodide (containing RNase) at room temperature in the dark for 20 min. The DNA content was determined by a fluorescence-activated cell sorting IV flow cytometer (BD Biosciences, Franklin Lakes, NJ). For each analysis, 10,000 cells were counted and the percentage of cells in each phase was calculated using the ModFit LT software (Verity Software House, Topsham, ME). Experiments were repeated independently at least three times.

[5] = tested on: HONE-1 cells; test: Clonogenic assay, HONE-1; format: cell-based, Human; details: Homo sapiens, HONE1; HONE-1, oral, p53 mutant, MDR1 negative; read-out: IC50, anti-proliferative activity
Protocol: as §1, §2

[6] = tested on: IM9 cells; test: Clonogenic assay, IM9; format: cell-based, Human; details: Homo sapiens; IM9, lymphoma, p53 wild-type, MDR1 negative; read-out: IC50, anti-proliferative activity
Protocol: as §1, §2

[7] = tested on: KB-VIN10 cells; test: Apoptosis assays (Annexin-V, caspase-3/-7 imaging, TUNEL, PARP cleavage), KB-VIN10; format: cell-based, Human; details: for apoptosis: phosphatidylserine translocation, caspase-3/-7 activity, DNA fragmentation: KB-VIN10, 48-72 h
Protocol: Cells were lysed with ice-cold lysis buffer (10 mM Tris, 1 mM EDTA, 1 mM DTT, 60 mM KCl, 0.5% NP-40 and protease inhibitors). […] The resolved proteins were electrophoretically transferred to PVDF membranes (Amersham Life Science, Amersham, U.K.) for Western blot analysis. […] Membranes were washed twice with TBST then subsequently incubated with a horseradish peroxidase-conjugated secondary antibody (Santa Cruz Biotechnology, Santa Cruz, CA) for 1 hour at room temperature. Immunoreactivity was detected by Enhanced Chemiluminescence (Amersham International, Buckingham, U.K.) and autoradiography. Experiments were repeated independently at least two times.
The cells were analyzed by fluorescence microscopy.
Briefly, cells were cultured in chamber-slides and incubated with test agents for various durations. […] Cells were viewed with a UV-enabled inverted-microscope at an excitation wavelength of 540 nm–560 nm and emission at 610 nm. Experiments were repeated independently at least two times.
Under in vitro conditions, cells were seeded and cultured in 8-well chamber-slides, and treated with various compounds. The treated cells were washed with PBS, fixed with 4% paraformaldehyde for 30 min on ice, and permeabilized with PBST at room temperature. […] Cells were counterstained with DAPI to detect the nucleus, and examined by fluorescence microscopy. Amount of red fluorescence labeled (DNA fragmented) cells were counted and percentage of apoptotic cells were calculated as follows: Amount of the red fluorescence labeled cells ÷ Total cells available×100. Experiments were repeated independently at least two times.

[8] = tested on: HT29 cells; test: Clonogenic assay, HT29; format: cell-based, Human; details: Homo sapiens, HT-29; HT29, colon, p53 mutant, MDR1 negative; read-out: IC50, anti-proliferative activity
Protocol: as §1, §2

[9] = tested on: MV4-11 cells; test: Clonogenic assay, MV4-11; format: cell-based, Human; details: Homo sapiens; MV4-11, leukemia, p53 mutant, MDR1 negative; read-out: IC50, anti-proliferative activity
Protocol: as §1, §2

Row | SMILES | phosphor-Aurora-A, -B and -C kinase [1] | phosphor-Histone H3 (Ser10) [1] | IC50 [2] [nM] | Fold difference as compare to the IC50 in the respective parental cells ([2]; KB-VIN10 vs KB) [fold] | loss of body weight after treatment ([3]; 15 mg/kg i.p., vs control group) | decrease in tumor volume [3] | formation of polyploidy (populations >4N) [4] | IC50 [5] [nM] | IC50 [6] [nM] | cleavage of PARP ([7]; KB-VIN10, 2× IC50 of KB, 72 h, Western blot) | apoptosis: phosphatidylserine translocation, caspase-3/-7 activity, DNA fragmentation [7] | IC50 [8] [nM] | IC50 [9] [nM] | formation of polyploidy, co-treated with verapamil ([4]; KB-VIN10, + 10 µM verapamil)
1 | CN(C)Cc1ccccc1NC(=O)Nc1ccc(CCNc2ncnc3oc(-c4ccccc4)c(Cl)c23)cc1 [BPR1K653] | concentration-dependent decrease | concentration-dependent decrease | 14 ± 4 | 1 | less than 10% | ~50% | induced the formation of polyploidy | 11 | 4 ± 2 | cleavage of PARP was only shown | induced the caspase-3/-7 activity and DNA fragmentation | 12 ± 2 | 5 | –
2 | Cc1cc(Nc2cc(N3CCN(C)CC3)nc(Sc3ccc(NC(=O)C4CC4)cc3)n2)[nH]n1 [VX680] | reduced in a concentration-dependent manner | reduced the amount of phosphor-Histone H3 (Ser10) | 1400 ± 140 | – | – | did not exhibit significant tumor growth inhibitory effect | not in KB-VIN10 cells | 20 ± 2 | 31 ± 16 | – | not in the MDR1-expressing KB-VIN10 cells | 160 ± 33 | 15 ± 4 | formation of the polyploidy population was shown
